From patent US9408871B2, “Methods for inhibiting complement activation and uses thereof” (THE UNIVERSITY OF BRITISH COLUMBIA, priority 2013, dated 2016)

Legend:
[1] = tested on: terminal pathway (TP) of complement; test: serum-based terminal pathway (TP) hemolytic assay (2% NHS, C5b,6, chicken erythrocytes); type: cell-based, human
From the text: Erythrocyte lysis assays were used to measure complement-mediated hemolytic activity. Erythrocyte (RBC) lysis assays as previously described^18,37 were used to measure complement activity. For alternative pathway assays and for total hemolytic activity assays, unsensitized rabbit erythrocytes were used. Chicken erythrocytes were used for the terminal pathway assays.
Erythrocytes were washed three times in GVB with the reaction buffers as indicated, and counted using the Advia 120 Hematology System from Siemens (Siemens, Erlangen, Germany). Reactions in 300 μL were allowed to proceed for 30 min at 37° C., after which unlysed cells were pelleted by centrifugation at 600×g. Erythrocyte lysis, reflected by the released hemoglobin in the supernatant, was quantified by measuring the absorbance at 405 nm using the Mithras LB 940 microplate reader from Berthold Technologies (Bad Wildbad, Germany). Percent lysis was determined relative to the control of 100% lysis with H2O. For total hemolytic and terminal pathway (TP) assays, the concentrations of NHS and C5b,6 to initiate complement activation were established from pilot studies to obtain ˜70-80% erythrocyte lysis at 30 min.
For serum-based terminal pathway (TP) hemolytic assays, components were diluted in GVB containing 10 mM EDTA (GVB-E), the latter added to prevent upstream complement activation and generation of endogenous C5b,6. 2% NHS was used as the source of C7, C8, and C9, and hemolysis of chicken erythrocytes (cRBC) (3.3×10^8 cells/mL) was initiated by addition of exogenous purified C5b,6, the concentration of which was determined from pilot studies to yield ˜70-80% lysis at 30 min. No C5b,6 activity was detected in the NHS prior to initiating the reaction. For some experiments, instead of NHS, purified terminal pathway complement components were used in the TP assays. In these assays, in a final volume of 300 uL GVB, lysis was achieved by the sequential addition of the following components: cRBC (3.3×10^8 cells/mL), C5b,6 (20 μM), C7 (15 nM), C8 (10 nM), and C9 (25 nM). The unlysed cell pellet was removed by centrifugation and lysis was measured immediately after the 30-minute reaction. A standard curve for the terminal pathway assay using serum as the source of complement (FIG. 2) was generated using a fixed serum concentration at 2%, and increasing concentrations of purified C5b,6 dose-dependently lysed chicken erythrocytes after 30 min at 37° C. […] of purified C5b,6 was therefore used to fix baseline lysis at ˜80% to allow assessment of the inhibitory effects of polyphosphate in serum.
TP activity in NHS(2%), measured by lysis of cRBC, was initiated by adding a limiting amount of exogenous purified C5b,6 (250 pM) to achieve 70-80% lysis after 30 min. A molar excess of EDTA was used to prevent upstream activation of complement and generation of endogenous C5b,6. In the absence of C5b,6, there was no detectable complement-mediated cRBC lysis. P1 at concentrations ranging from 0.1 to 1000 μM, had no effect on complement-mediated hemolysis in NHS via the TP (FIG. 5A). By contrast, polyphosphate>1000 inhibited the TP in serum in a concentration-dependent manner, with an IC50 of ˜10 μM polyphosphate>1000 (dotted lines) (calculated based on monomeric phosphate).

[2] = tested on: choroidal endothelial cells (CEC; RF/6A); test: protection against H2O2 oxidative stress, microscopy; type: cell-based; conditions: 100 μM to 1000 μM, H2O2 24 hours
Procedure: Using cultured cell lines as models of choroidal endothelial cells (CEC; RF/6A)^73 and retinal pigmented epithelial cells (ARPE-19)^74, we tested whether polyphosphate (polyP) could protect against stress-induced alterations in cell survival and deposition of terminal complement activation products (C5b-9).
CEC (FIG. 21) or ARPE-19 (FIG. 22) cells were grown to ˜80% confluence in DMEM+10% serum, and then incubated with varying concentration of hydrogen peroxide (H2O2) for 24 hours in the presence of varying concentrations of polyP1000.

## O=P(O)(O)O [P1, Orthophosphate]
[1]; 100 μM (based on the monomeric form)
  effect on TP hemolytic activity at equivalent concentration: had no effect
[1]; 0.1 to 1000 μM, 2% NHS, 250 pM C5b,6, cRBC
  effect on complement-mediated hemolysis in NHS via the TP: had no effect
[1]; up to 2 mM P1 with 200 μM polyphosphate>1000
  effect of co-incubated P1 on suppressive properties of polyphosphate>1000: had no effect on the suppressive properties
[2]
  protective effect against H2O2 oxidative stress, CEC: No effect was observed
